According to patent US20240018128A1, “PESTICIDALLY ACTIVE HETEROCYCLIC DERIVATIVES WITH SULFUR CONTAINING SUBSTITUENTS” (SYNGENTA CROP PROTECTION AG, priority 2020, published 2024):

Experiments:
Type in all cases: in vivo
[1] = test system: Myzus persicae (green peach aphid); assay: Example B9: Activity against Myzus persicae (green peach aphid), systemic activity; details: 144 h, test rate 24 ppm, roots of infested pea seedlings placed into test solution, 6 days
Protocol: Example B9: Activity Against Myzus persicae (Green Peach Aphid). Systemic Activity
Roots of pea seedlings infested with an aphid population of mixed ages were placed directly into aqueous test solutions prepared from 10,000 DMSO stock solutions. The samples were assessed for mortality 6 days after placing seedlings into test solutions.

[2] = test system: Spodoptera littoralis (Egyptian cotton leaf worm); assay: Example B6: Activity against Spodoptera littoralis (Egyptian cotton leaf worm); details: foliar, 72 h, application rate 200 ppm, cotton leaf discs sprayed, L1 larvae, 3 days after infestation, read-out: control (mortality, anti-feeding effect or growth inhibition)
Protocol: Example B6: Activity Against Spodoptera littoralis (Egyptian Cotton Leaf Worm)
Cotton leaf discs were placed onto agar in 24-well microtiter plates and sprayed with aqueous test solutions prepared from 10,000 ppm DMSO stock solutions. After drying the leaf discs were infested with five L1 larvae. The samples were assessed for mortality, anti-feeding effect, and growth inhibition in comparison to untreated samples 3 days after infestation. Control of Spodoptera littoralis by a test sample is given when at least one of the categories mortality, anti-feedant effect, and growth inhibition is higher than the untreated sample.

[3] = test system: Euschistus heros (neotropical brown stink bug); assay: Example B2: Activity against Euschistus heros (neotropical brown stink bug); details: 120 h, application rate 200 ppm, soybean leaves sprayed, N2 nymphs, 5 days after infestation, read-out: effect in at least one of the two categories (mortality or growth inhibition)
Protocol: Example B2: Activity Against Euschistus heros (Neotropical Brown Stink Bug)
Soybean leaves on agar in 24-well microtiter plates were sprayed with aqueous test solutions prepared from 10,000 ppm DMSO stock solutions. After drying the leaves were infested with N2 nymphs. The samples were assessed for mortality and growth inhibition in comparison to untreated samples 5 days after infestation.

[4] = test system: Plutella xylostella (diamond back moth); assay: Example B5: Activity against Plutella xylostella (diamond back moth); details: 192 h, application rate 200 ppm, artificial diet treated by pipetting, eggs, 8 days after infestation, read-out: effect in at least one of the two categories (mortality or growth inhibition)
Protocol: Example B5: Activity Against Plutella xylostella (Diamond Back Moth)
24-well microtiter plates with artificial diet were treated with aqueous test solutions prepared from 10,000 ppm DMSO stock solutions by pipetting. After drying, Plutella eggs were pipetted through a plastic stencil onto a gel blotting paper and the plate was closed with it. The samples were assessed for mortality and growth inhibition in comparison to untreated samples 8 days after infestation. The following compounds gave an effect of at least 80% in at least one of the two categories (mortality or growth inhibition) at an application rate of 200 ppm: P1, P2, P4, P5, P6, P7, P9, P10, P11, P12, P13, P14, P15, P16, P17, P18.

[5] = test system: Myzus persicae (green peach aphid); assay: Example B4: Activity against Myzus persicae (green peach aphid), feeding/contact activity; details: foliar, 144 h, application rate 200 ppm, sunflower leaf discs sprayed, aphid population of mixed ages, 6 days after infestation
Protocol: Example B4: Activity Against Myzus persicae (Green Peach Aphid) Feeding/Contact Activity
Sunflower leaf discs were placed onto agar in a 24-well microtiter plate and sprayed with aqueous test solutions prepared from 10,000 ppm DMSO stock solutions. After drying, the leaf discs were infested with an aphid population of mixed ages. The samples were assessed for mortality 6 days after infestation.

[6] = test system: Chilo suppressalis (striped rice stemborer); assay: Example B8: Activity against Chilo suppressalis (striped rice stemborer); details: 144 h, application rate 200 ppm, artificial diet treated by pipetting, L2 larvae, 6 days after infestation, read-out: control (mortality, anti-feeding effect or growth inhibition)
Protocol: Example B8: Activity Against Chilo suppressalis (Striped Rice Stemborer)
24-well microtiter plates with artificial diet were treated with aqueous test solutions prepared from 10,000 ppm DMSO stock solutions by pipetting. After drying, the plates were infested with L2 larvae (6-8 per well). The samples were assessed for mortality, anti-feeding effect, and growth inhibition in comparison to untreated samples 6 days after infestation. Control of Chilo suppressalis by a test sample is given when at least one of the categories mortality, anti-feedant effect, and growth inhibition is higher than the untreated sample.

[7] = test system: Diabrotica balteata (corn root worm); assay: Example B1: Activity against Diabrotica balteata (corn root worm); details: 96 h, application rate 200 ppm, maize sprouts sprayed, L2 larvae, 4 days after infestation, read-out: effect in at least one of the two categories (mortality or growth inhibition)
Protocol: Example B1: Activity Against Diabrotica Balteata (Corn Root Worm)
Maize sprouts placed onto an agar layer in 24-well microtiter plates were treated with aqueous test solutions prepared from 10,000 ppm DMSO stock solutions by spraying. After drying, the plates were infested with L2 larvae (6 to 10 per well). The samples were assessed for mortality and growth inhibition in comparison to untreated samples 4 days after infestation.

CCS(=O)(=O)c1c(N2Cc3ncc(C(F)(F)F)cc3C2=O)nc(-c2cnn(C(F)F)c2)n1C [Compound P13, 6-[2-[1-(difluoromethyl)pyrazol-4-yl]-5-ethylsulfonyl-1-methyl-imidazol-4-yl]-3-(trifluoromethyl)-7H-pyrrolo[3,4-b]pyridin-5-one]
≥ 80%: mortality at 24 ppm [1] | control at 200 ppm [2] | percent effect (mortality or growth inhibition) at 200 ppm [3] | effect (mortality or growth inhibition) at 200 ppm [4] | mortality at 200 ppm [5] | control at 200 ppm [6] | mortality or growth inhibition at 200 ppm [7]

CCS(=O)(=O)c1c(N2Cc3ncc(C(F)(F)F)cc3C2=O)nc(-n2ccc(Cl)n2)n1C [Compound P16, 6-[2-(3-chloropyrazol-1-yl)-5-ethylsulfonyl-1-methyl-imidazol-4-yl]-3-(trifluoromethyl)-7H-pyrrolo[3,4-b]pyridin-5-one]
≥ 80%: control at 200 ppm [2] | percent effect (mortality or growth inhibition) at 200 ppm [3] | effect (mortality or growth inhibition) at 200 ppm [4] | mortality at 200 ppm [5] | control at 200 ppm [6] | mortality or growth inhibition at 200 ppm [7]

CCS(=O)(=O)c1c(N2Cc3ncc(C(F)(F)F)cc3C2=O)nc(-c2cnn(CC3(C#N)CC3)c2)n1C [Compound P4, 1-[[4-[5-ethylsulfonyl-1-methyl-4-[5-oxo-3-(trifluoromethyl)-7H-pyrrolo[3,4-b]pyridin-6-yl]imidazol-2-yl]pyrazol-1-yl]methyl]cyclopropane-carbonitrile]
≥ 80%: mortality at 24 ppm [1] | percent effect (mortality or growth inhibition) at 200 ppm [3] | effect (mortality or growth inhibition) at 200 ppm [4] | mortality at 200 ppm [5] | control at 200 ppm [6]

CCS(=O)(=O)c1c(N2Cc3ncc(C(F)(F)F)cc3C2=O)nc(-c2cnn(CC(F)F)c2)n1C [Compound P5, 6-[2-[1-(2,2-difluoroethyl)pyrazol-4-yl]-5-ethylsulfonyl-1-methyl-imidazol-4-yl]-3-(trifluoromethyl)-7H-pyrrolo[3,4-b]pyridin-5-one]
≥ 80%: mortality at 24 ppm [1] | control at 200 ppm [2] | percent effect (mortality or growth inhibition) at 200 ppm [3] | effect (mortality or growth inhibition) at 200 ppm [4] | mortality at 200 ppm [5] | control at 200 ppm [6]

CCS(=O)(=O)c1c(N2Cc3ncc(C(F)(F)F)cc3C2=O)nc(-c2cncnc2)n1C [Compound P8, 6-(5-ethylsulfonyl-1-methyl-2-pyrimidin-5-yl-imidazol-4-yl)-3-(trifluoromethyl)-7H-pyrrolo[3,4-b]pyridin-5-one]
≥ 80%: mortality at 24 ppm [1]

CCS(=O)(=O)c1c(N2Cc3ncc(C(F)(F)F)cc3C2=O)nc(-n2ccc(C3CC3)n2)n1C [Compound P15, 6-[2-(3-cyclopropylpyrazol-1-yl)-5-ethylsulfonyl-1-methyl-imidazol-4-yl]-3-(trifluoromethyl)-7H-pyrrolo[3,4-b]pyridin-5-one]
≥ 80%: control at 200 ppm [2] | percent effect (mortality or growth inhibition) at 200 ppm [3] | effect (mortality or growth inhibition) at 200 ppm [4] | mortality at 200 ppm [5] | mortality or growth inhibition at 200 ppm [7]

CCS(=O)(=O)c1c(N2Cc3ncc(C(F)(F)F)cc3C2=O)nc(OCC(F)(F)F)n1C [Compound P6, 6-[5-ethylsulfonyl-1-methyl-2-(2,2,2-trifluoroethoxy)imidazol-4-yl]-3-(trifluoromethyl)-7H-pyrrolo[3,4-b]pyridin-5-one]
≥ 80%: mortality at 24 ppm [1] | control at 200 ppm [2] | effect (mortality or growth inhibition) at 200 ppm [4] | mortality at 200 ppm [5] | control at 200 ppm [6] | mortality or growth inhibition at 200 ppm [7]

CCS(=O)(=O)c1c(N2Cc3ccc(OC(F)(F)F)cc3C2=O)nc(-c2ncccn2)n1C [Compound P11, 2-(5-ethylsulfonyl-1-methyl-2-pyrimidin-2-yl-imidazol-4-yl)-6-(trifluoromethoxy)isoindolin-1-one]
≥ 80%: mortality at 24 ppm [1] | percent effect (mortality or growth inhibition) at 200 ppm [3] | effect (mortality or growth inhibition) at 200 ppm [4] | mortality at 200 ppm [5] | control at 200 ppm [6] | mortality or growth inhibition at 200 ppm [7]

CCS(=O)(=O)c1c(N2Cc3ncc(C(F)(F)F)cc3C2=O)nc(-c2ncccn2)n1C [Compound P12, 6-(5-ethylsulfonyl-1-methyl-2-pyrimidin-2-yl-imidazol-4-yl)-3-(trifluoromethyl)-7H-pyrrolo[3,4-b]pyridin-5-one]
≥ 80%: mortality at 24 ppm [1] | percent effect (mortality or growth inhibition) at 200 ppm [3] | effect (mortality or growth inhibition) at 200 ppm [4] | mortality at 200 ppm [5] | control at 200 ppm [6] | mortality or growth inhibition at 200 ppm [7]

CCS(=O)(=O)c1c(N2Cc3ncc(C(F)(F)F)cc3C2=O)nc(-n2cc(C(F)(F)F)cn2)n1C [Compound P14, 6-[5-ethylsulfonyl-1-methyl-2-[4-(trifluoromethyl)pyrazol-1-yl]imidazol-4-yl]-3-(trifluoromethyl)-7H-pyrrolo[3,4-b]pyridin-5-one]
≥ 80%: control at 200 ppm [2] | percent effect (mortality or growth inhibition) at 200 ppm [3] | effect (mortality or growth inhibition) at 200 ppm [4] | mortality at 200 ppm [5] | control at 200 ppm [6] | mortality or growth inhibition at 200 ppm [7]

CCS(=O)(=O)c1c(N2Cc3ccc(OC(F)(F)F)cc3C2=O)nc(-c2cncnc2)n1C [Compound P7, 2-(5-ethylsulfonyl-1-methyl-2-pyrimidin-5-yl-imidazol-4-yl)-6-(trifluoromethoxy)isoindolin-1-one]
≥ 80%: control at 200 ppm [2] | effect (mortality or growth inhibition) at 200 ppm [4] | control at 200 ppm [6]

CCS(=O)(=O)c1c(N2Cc3ncc(C(F)(F)F)cc3C2=O)nc(-c2ccc(C3(C#N)CC3)cc2)n1C [Compound P18, 1-[4-[5-ethylsulfonyl-1-methyl-4-[5-oxo-3-(trifluoromethyl)-7H-pyrrolo[3,4-b]pyridin-6-yl]imidazol-2-yl]phenyl]cyclopropane-carbonitrile]
≥ 80%: control at 200 ppm [2] | effect (mortality or growth inhibition) at 200 ppm [4] | mortality at 200 ppm [5] | control at 200 ppm [6] | mortality or growth inhibition at 200 ppm [7]

CCS(=O)(=O)c1c(N2Cc3ncc(C(F)(F)F)cc3C2=O)nc(C2CC(C3CC3)=NO2)n1C (stereo not drawn) [Compound P3, 6-[2-(3-cyclopropyl-4,5-dihydroisoxazol-5-yl)-5-ethylsulfonyl-1-methyl-imidazol-4-yl]-3-(trifluoromethyl)-7H-pyrrolo[3,4-b]pyridin-5-one]
≥ 80%: control at 200 ppm [6]
